Measurements taken from patent US20230405023A1, “USE OF THE NAV1.6 SODIUM CHANNEL BLOCKER (S)-4-((1-BENZYLPYRROLIDIN-3-YL)(METHYL)AMINO)-2-FLUORO-5-METHYL-N(THIAZOL-4-YL)BENZENESULFONAMIDE, TOGETHER WITH STRONG INDUCERS OF CYTOCHROME P450 3A4, IN THE TREATMENT OF CONDITIONS ASSOCIATED WITH NAVI.6 ACTIVITY” (Xenon Pharmaceuticals Inc., priority 2020, published 2023).
Where two headings read alike, the source gives them in different places.

Legend:
[1] = Safety: treatment-emergent adverse events (TEAEs) in the pharmacokinetic study; type: in vivo, human
Procedure: (§1) In this open-label, randomized study, subjects received the following treatments: • Two single oral doses of 100 mg (2×50 mg) Compound A adult immediate release tablet formulation, fasted state, administered on Day 1 and Day 12. • Repeat doses of phenytoin 100 mg TID for 10 days (from Day 3 until the morning of Day 12).
A total of 15 subjects (83%) reported 101 TEAEs over the course of the study. Three treatment periods were defined: Day 1 to Day 3 (following Compound A dosing on Day 1 and prior to start of phenytoin dosing on Day 3) corresponds to the Compound A treatment period, Day 3 to Day 12 (following phenytoin dosing on Day 3 and prior to Compound A dosing on Day 12) corresponds to the phenytoin treatment period, and Day 12 to the follow-up visit (following Compound A dosing on Day 12) corresponds to the Compound A in combination with phenytoin treatment period.

[2] = Open-label randomized pharmacokinetic drug-drug interaction study: plasma PK of Compound A alone or with phenytoin; type: in vivo, human; conditions: for Cmax / AUC / Tmax / AUC(0-t) / AUC(0-inf) / half-life: human, plasma; for Cmax / AUC / Tmax / half-life: 100 mg; for AUC(0-t): read-out: mean AUC0-t; for AUC(0-inf): read-out: mean AUC0-inf; for half-life: read-out: elimination half-life (converted)
Procedure: as §1
(§2) Subjects fasted overnight for a minimum of 10 hours prior to dosing on Day 1 and Day 12. An oral dose of the Compound A IR tablet treatment was administered in the morning with approximately 240 mL of water at ambient temperature, to 1 subject per 2 minute intervals. Fasting continued for at least 4 hours following administration. Water was provided as needed until 1 hour pre-dose. Water was allowed beginning 1 hour after the administration of the drug.
(§3) On Day 3 to Day 11, an oral dose of phenytoin was administered TID with approximately 240 mL of water at ambient temperature, starting at 07:30, 15:30, and 23:30 to 1 subject per 2 minute intervals. On Day 12, an oral dose of phenytoin was administered in the morning with approximately 240 mL of water at ambient temperature, starting at 07:30 (1 hour prior to Compound A dosing) to 1 subject per 2 minute intervals.
(§4) The direct measurements of this study were the plasma, whole blood, urine, and saliva concentrations of Compound A and plasma concentrations for phenytoin.
The magnitude of DDI was described using GMR (with/without phenytoin) and associated 90% CI of the Cmax, AUC0-t, and AUC0-inf for Compound A.

[3] = Urinary excretion and renal clearance of Compound A in the pharmacokinetic study; type: in vivo, human; conditions: for mean amount excreted unchanged in urine / mean percentage of dose excreted unchanged in urine: over 48 hours following dosing
Procedure: as §1, §2, §3, §4

CYP3A4, CYP2D6, CYP2C9 = conditions: has been reported; cited from earlier work
[4] = whole study (Compound A, phenytoin, combination)
[5] = with phenytoin 100 mg TID for 10 days (Day 12) vs Compound A alone
[6] = with vs without phenytoin comparison
[7] = Compound A 100 mg + phenytoin 100 mg TID

Cc1cc(S(=O)(=O)Nc2cscn2)c(F)cc1N(C)[C@H]1CCN(Cc2ccccc2)C1 [Compound A, (S)-4-((1-benzylpyrrolidin-3-yl)(methyl)amino)-2-fluoro-5-methyl-N-(thiazol-4-yl)benzenesulfonamide]
incidence of subjects with TEAEs ([1]; Compound A alone on Day 1): 39% | incidence of subjects with TEAEs ([1]; Compound A in combination with phenytoin on Day 12): 65% | deaths or SAEs [1, 4]: No deaths or SAEs occurred | subjects reporting a severe TEAE [1, 4]: None | effect of phenytoin 100 mg TID on Compound A total systemic exposure ([2]; 90% CI of GMR for AUC0-t and AUC0-inf within no effect boundaries 80.00-125.00%): did not affect | apparent clearance ([2]; Compound A alone): 5.4 L/h | apparent volume of distribution ([2]; Compound A alone): 89 L | apparent clearance ([2]; Compound A with phenytoin): 5.7 L/h | apparent volume of distribution ([2]; Compound A with phenytoin): 65 L | increase of peak plasma concentration (Cmax) ([2]; co-administered with phenytoin 100 mg TID x 10 days vs Compound A alone): approximately 22% | Cmax ([2]; oral, Compound A 100 mg alone, full sampling, read-out: mean Cmax): 3300 ng/mL | AUC ([2]; oral, Compound A 100 mg alone, truncated sampling): 19900 ng·h/mL | Cmax ([2]; oral, Compound A 100 mg alone, truncated sampling, read-out: Cmax): 3220 ng/mL | Tmax ([2]; oral, Compound A 100 mg alone, truncated sampling, read-out: Tmax): 1 h | Cmax ([2]; oral, Compound A 100 mg with phenytoin 100 mg TID x 10 days, full sampling, read-out: mean Cmax): 3720 ng/mL | AUC ([2]; oral, Compound A with phenytoin 100 mg TID x 10 days, truncated sampling): 18600 ng·h/mL | Cmax ([2]; oral, Compound A with phenytoin 100 mg TID x 10 days, truncated sampling, read-out: Cmax): 3680 ng/mL | Tmax ([2]; oral, Compound A with phenytoin 100 mg TID x 10 days, truncated sampling, read-out: Tmax): 1 h | AUC(0-t) ([2]; oral, Compound A 100 mg + phenytoin 100 mg TID x 10 days, full sampling): 17800 ng·h/mL | AUC(0-inf) ([2]; oral, Compound A 100 mg + phenytoin 100 mg TID x 10 days): 18000 ng·h/mL | AUC(0-t) ([2]; oral, Compound A 100 mg alone, full sampling): 19100 ng·h/mL | AUC(0-inf) ([2]; oral, Compound A 100 mg alone): 19800 ng·h/mL | Tmax ([2]; po, Compound A 100 mg single oral dose alone (Day 1), fasted, full sampling, read-out: time to peak plasma concentrations (Tmax)): ~1 h | Tmax ([2]; po, Compound A 100 mg single oral dose with phenytoin 100 mg TID for 10 days (Day 12), full sampling, read-out: time to peak plasma concentrations (Tmax)): ~1 h | half-life ([2]; po, Compound A alone): 10 h | half-life ([2]; po, Compound A with phenytoin): 8 h | difference in AUC0-inf [2, 5]: ~7% | difference in AUC0-t [2, 5]: approximately 4% | intra-subject CV % of AUC0-inf [2, 6]: 22% | intra-subject CV % of AUC0-t [2, 6]: 26% | intra-subject CV % of Cmax [2, 6]: 53% | AUC0-inf GMR ([2]; with/without phenytoin, 90% CI 81.75-105.23%): 92.75% | AUC0-t GMR ([2]; with/without phenytoin, 90% CI 82.54-111.67%): 96.01% | Cmax geometric mean ratio (GMR) ([2]; with/without phenytoin, 90% CI 90.94-162.38%): 121.52% | mean amount excreted unchanged in urine [3, 7]: 57186 ng | mean percentage of dose excreted unchanged in urine [3, 7]: 0.06% | mean amount excreted unchanged in urine ([3]; Compound A 100 mg alone): 71103 ng | mean percentage of dose excreted unchanged in urine ([3]; Compound A 100 mg alone): 0.07% | CL renal ([3]; human, urine, oral, both treatments: presence (Day 12) or absence (Day 1) of phenytoin): 0.05 to 0.0667 mL/min | CLr GMR ([3]; with/without phenytoin): 100.25% | metabolizing CYP enzymes (CYP3A4, CYP2D6, CYP2C9): metabolized by CYP3A4, CYP2D6, and to a lesser extent CYP2C9

O=C1NC(=O)C(c2ccccc2)(c2ccccc2)N1 [phenytoin, reference compound]
incidence of subjects with TEAEs ([1]; phenytoin alone from Day 3 to Day 12): 71%
